Results: patent US11214803B2, “Modulators of YAP1 expression” (Ionis Pharmaceuticals, Inc., priority 2019, dated 2022)
Strand notation (5' to 3'): a small letter for the sugar, then the base; units joined by * are phosphorothioate-linked, units joined directly phosphodiester-linked; [ ] holds rarer units or linkages, { } end groups; capitals alone tell only the bases. k = constrained ethyl (cEt); [5mC] = 5-methylcytosine; d = 2'-deoxy (DNA)

What follows are substances tested on Yap1 mRNA (assay: Antisense inhibition of human Yap1 in A-431 cells by cEt gapmers, single dose (Example 3, RTS36584)). Conditions: Table 8; A-431 cells, 5,000 cells per well, free uptake, 2,000 nM, approximately 48 hours; RTS36584; normalized to RIBOGREEN; Yap1 mRNA relative to untreated control cells.
Assay type: cell-based
Procedure, shortened: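 Values are % untreated control: Yap1 mRNA by quantitative RT-PCR (RTS36584), normalized to total RNA by RiboGreen. Before RNA isolation, 5,000 A-431 cells per well were exposed ~48 h to 2,000 nM 16-mer cEt gapmer, delivered without transfection reagent.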

Substance | YAP1 (% UTC)
958377 (antisense kG*k[5mC]*kT*dG*dG*dG*dA*dT*dT*dG*dA*dT*dA*kT*kT*k[5mC]) [Compound 958377] | 9
958364 (antisense k[5mC]*kA*kT*dG*dT*dT*dG*dT*dT*dG*dT*d[5mC]*dT*kG*kA*kT) [Compound 958364] | 19
958379 (antisense kG*k[5mC]*kG*d[5mC]*d[5mC]*d[5mC]*dG*d[5mC]*d[5mC]*d[5mC]*dG*d[5mC]*dA*k[5mC]*k[5mC]*kG) [Compound 958379] | 124
958351 (kT*k[5mC]*kT*d[5mC]*d[5mC]*dG*dA*dG*dT*d[5mC]*d[5mC]*d[5mC]*d[5mC]*kG*k[5mC]*kG; antisense) [Compound 958351] | 67

Same assay, conditions: Table 9; A-431 cells, 5,000 cells per well, free uptake, 2,000 nM, approximately 48 hours; RTS36584; normalized to RIBOGREEN; Yap1 mRNA relative to untreated control cells

Substance | YAP1 (% UTC)
958676 (kG*kA*kA*d[5mC]*dT*dT*dA*dG*dT*dT*d[5mC]*d[5mC]*d[5mC]*kT*kA*kT; antisense) [Compound 958676] | 34
958781 (antisense kG*kT*k[5mC]*dA*dT*d[5mC]*dT*dA*dT*dG*dT*dG*dT*k[5mC]*k[5mC]*kT) [Compound 958781] | 6
958796 (antisense kA*kT*kT*dA*dT*dA*dT*dG*dG*dT*dT*dG*d[5mC]*kT*kT*k[5mC]) [Compound 958796] | 3
958541 (kG*kT*kA*dT*dT*d[5mC]*dT*dA*dT*d[5mC]*d[5mC]*dA*dG*kG*kG*kT; antisense) [Compound 958541] | 4
958731 (antisense kG*k[5mC]*kT*d[5mC]*dT*dG*dT*d[5mC]*dA*dG*dT*dT*dA*kT*k[5mC]*k[5mC]) [Compound 958731] | 7
958546 (k[5mC]*kA*kT*dA*d[5mC]*dT*d[5mC]*dT*dA*dG*dT*dT*dA*k[5mC]*kA*kT; antisense) [Compound 958546] | 6

Same assay, conditions: Table 10; A-431 cells, 5,000 cells per well, free uptake, 2,000 nM oligonucleotide, approx. 48 hours; primer probe set RTS36584; Yap1 mRNA normalized to RIBOGREEN, percent of untreated control

Substance | YAP1 (% UTC)
958652 (kG*k[5mC]*kT*dA*d[5mC]*dG*dA*d[5mC]*dG*dG*d[5mC]*dT*dG*kG*k[5mC]*k[5mC]; antisense) [Compound 958652] | 136
958657 (k[5mC]*kA*kG*dT*dA*dT*dA*dA*dT*dA*dT*d[5mC]*d[5mC]*kT*kA*kA; antisense) [Compound 958657] | 37
958502 (k[5mC]*kT*kA*dT*dT*dA*dA*d[5mC]*dA*dG*dA*dT*dT*k[5mC]*kA*k[5mC]; antisense) [Compound 958502] | 13
958577 (kT*k[5mC]*kT*dG*dT*dG*dG*d[5mC]*dT*dA*d[5mC]*dT*dG*kG*k[5mC]*kA; antisense) [Compound 958577] | 4

Same assay, conditions: Table 11; A-431 cells, 5,000 cells per well, free uptake, 2,000 nM oligonucleotide, approx. 48 hours; primer probe set RTS36584; Yap1 mRNA normalized to RIBOGREEN, percent of untreated control

Substance | YAP1 (% UTC)
958558 (kT*kT*k[5mC]*dA*d[5mC]*dA*dA*d[5mC]*d[5mC]*dA*dA*d[5mC]*dT*kA*kT*kT; antisense) [Compound 958558] | 9
958778 (antisense kG*k[5mC]*kT*dA*d[5mC]*d[5mC]*dT*dG*dG*dA*dG*d[5mC]*dG*kA*kA*kG) [Compound 958778] | 75
958533 (kG*k[5mC]*kA*dT*dA*dG*dA*dA*dG*dT*dA*dG*dG*kA*kG*k[5mC]; antisense) [Compound 958533] | 3

Same assay, conditions: Table 12; A-431 cells, 5,000 cells per well, free uptake, 2,000 nM modified oligonucleotide, approx. 48 hours; RTS36584; normalized to RIBOGREEN; Yap1 mRNA relative to untreated control cells

Substance | YAP1 (% UTC)
958614 (antisense kG*kT*k[5mC]*dT*dT*dG*dT*dT*d[5mC]*dT*dT*dA*dT*kG*kG*kT) [Compound 958614] | 6
958454 (antisense kG*kG*kA*dA*dT*dG*dA*dG*d[5mC]*dT*d[5mC]*dG*dA*kA*k[5mC]*kA) [Compound 958454] | 3

Same assay, conditions: Table 13; A-431 cells, 5,000 cells per well, free uptake, 2,000 nM modified oligonucleotide, approx. 48 hours; RTS36584; normalized to RIBOGREEN; Yap1 mRNA relative to untreated control cells

Substance | YAP1 (% UTC)
958450 (antisense kG*kG*kT*d[5mC]*dG*d[5mC]*d[5mC]*dG*d[5mC]*dG*dG*dG*dT*kG*k[5mC]*k[5mC]) [Compound 958450] | 59
958625 (antisense kT*kG*k[5mC]*dT*dG*dG*dG*dA*dT*dT*dG*dA*dT*kA*kT*kT) [Compound 958625] | 6
958770 (antisense kA*k[5mC]*kA*dG*dA*dG*d[5mC]*dG*dG*dT*dG*d[5mC]*dA*k[5mC]*k[5mC]*k[5mC]) [Compound 958770] | 64

Same assay, conditions: Table 26; Yap1 mRNA by 3-10-3 cEt gapmers targeting SEQ ID NO.: 1, and 2; percent of untreated control

Substance | YAP1 (% UTC)
1075180 (kT*kA*kT*dT*dA*d[5mC]*dT*dA*d[5mC]*dA*dA*d[5mC]*d[5mC]*kA*kT*kA; antisense) [compound 1075180] | 56
1075404 (antisense kA*kT*kA*dT*dA*dA*d[5mC]*d[5mC]*dT*dG*dA*dA*d[5mC]*kT*kA*kA) [compound 1075404] | 102

Same assay, conditions: Table 27; Yap1 mRNA by 3-10-3 cEt gapmers targeting SEQ ID NO.: 1, and 2; percent of untreated control

Substance | YAP1 (% UTC)
1074605 (DNA kT*k[5mC]*kA*dA*d[5mC]*dT*dA*d[5mC]*d[5mC]*dA*dA*dT*dA*kT*kA*k[5mC]) [compound 1074605] | 20
1075661 (antisense kG*kA*kA*dT*dA*dG*dG*dA*dT*dA*d[5mC]*dA*dA*kG*k[5mC]*kA) [compound 1075661] | 74
1074669 (antisense kA*kT*k[5mC]*d[5mC]*d[5mC]*dA*dA*d[5mC]*dA*dA*d[5mC]*dA*dT*kG*k[5mC]*kT) [compound 1074669] | 13
1074573 (DNA kA*kT*kT*dA*dT*dG*dA*dA*d[5mC]*d[5mC]*dT*dA*d[5mC]*kT*k[5mC]*kA) [compound 1074573] | 14
1074989 (antisense kG*kA*kG*dG*dG*dA*dA*dA*dG*d[5mC]*dA*d[5mC]*dG*k[5mC]*k[5mC]*k[5mC]) [compound 1074989] | 105

Same assay, conditions: Table 28; Yap1 mRNA as percent of untreated control; 3-10-3 cEt gapmers targeting SEQ ID NO.: 1, and 2

Substance | YAP1 (% UTC)
1076142 (kA*kT*kA*d[5mC]*dG*dA*dA*dA*dA*dA*dA*dG*d[5mC]*k[5mC]*kA*kA; antisense) [compound 1076142] | 38
1075694 (kA*k[5mC]*kA*dT*dT*dA*dA*dA*dA*dG*dT*dT*dG*kG*kG*kT; antisense) [compound 1075694] | 11
1075086 (antisense kA*kG*kT*dT*dA*dT*dA*dG*dA*d[5mC]*dT*dT*dT*kG*kT*kA) [compound 1075086] | 25
1074382 (kA*kG*kG*dT*dA*dG*dT*d[5mC]*dT*dG*dG*dG*dA*kA*kA*k[5mC]; antisense) [compound 1074382] | 8

Same assay, conditions: Table 29; Yap1 mRNA as percent of untreated control; 3-10-3 cEt gapmers targeting SEQ ID NO.: 1, and 2

Substance | YAP1 (% UTC)
1074127 (k[5mC]*k[5mC]*kA*d[5mC]*dT*dG*dG*dT*d[5mC]*dT*dG*dG*d[5mC]*kG*kG*k[5mC]; antisense) [compound 1074127] | 57

Same assay, conditions: Table 34; Yap1 mRNA as percent of untreated control; 3-10-3 cEt gapmers targeting SEQ ID NO: 1 and 2; single dose

Substance | YAP1 (% UTC)
1075476 (kT*k[5mC]*kT*dT*dA*dT*d[5mC]*d[5mC]*dT*dA*d[5mC]*dA*dG*k[5mC]*kT*kT; antisense) [compound 1075476] | 75
1075572 (antisense k[5mC]*kA*kA*dT*dT*dT*dA*dA*d[5mC]*dT*dG*dT*dT*kA*k[5mC]*kA) [compound 1075572] | 84
1076468 (k[5mC]*kA*kT*dT*dA*d[5mC]*dT*dA*d[5mC]*dT*dA*dA*dG*kA*kG*kT; antisense) [compound 1076468] | 91

Same assay, conditions: Table 35; Yap1 mRNA as percent of untreated control; 3-10-3 cEt gapmers targeting SEQ ID NO: 1 and 2; single dose

Substance | YAP1 (% UTC)
1074741 (kA*kA*kG*dG*dA*d[5mC]*dT*d[5mC]*dT*dT*dA*dG*dG*kT*k[5mC]*kT; antisense) [compound 1074741] | 78
1076309 (kG*kA*kT*dA*dA*d[5mC]*dT*dT*dT*d[5mC]*d[5mC]*dA*d[5mC]*kA*kA*kT; antisense) [compound 1076309] | 9
1074997 (antisense kG*k[5mC]*k[5mC]*dG*d[5mC]*dG*dA*dG*dG*dA*dA*dA*dA*kT*kA*kA) [compound 1074997] | 119
